Experimental data reported in patent publication EP4810052A2, “HCRHR2 SELECTIVE POLYPEPTIDES” (Gubra A/S, priority 2023, dated 2026).
Read-outs that look alike come from different tables or passages of the source. Starred links: 1 amine or outer side, 2 acyl side, 3 side chain; linkers in the order of their positions; H or OH if unused. Non-standard residues stand in square brackets, D forms with d. Residues, ends and D or L forms follow the SMILES beside them. Groups on a side chain read outwards from the residue. *: point of attachment. C20 diacid = O=C(O)CCCCCCCCCCCCCCCCCCC(=O)*; γGlu = O=C(O)[C@H](CCC(=O)[*:2])N[*:1]; NMeI = CC[C@H](C)[C@H](NC)C(=O)O; AEEA = NCCOCCOCC(=O)O; Aib = CC(C)(N)C(=O)O

Legend:
pCRHR1 = assay: cAMP potency, transiently transfected CHO-K1 cells, pCRHR1; format: cell-based, pig; conditions: transiently transfected CHO-K1, average n=3; read-out: Transient cell system EC50 (nM) pCRHR 1
Procedure: (§1) Selected peptides were tested for potency on different species (mouse, rat, porcine) using transiently transfected CHO-K1 cells using the general procedure.

rCRHR2 = biological target: T1, rCRHR2 (Rattus norvegicus, UniProt P47866); assay: cAMP potency, transiently transfected CHO-K1 cells, rCRHR2; format: cell-based; conditions: transiently transfected CHO-K1, average n=3; read-out: Transient cell system EC50 (nM) rCRHR 2
T1 construct: DYK (FLAG); host or cells: CHO-K1, transiently transfected
Procedure: as §1

PK in minipigs = conditions: male, Göttingen, minipig, in vivo; for half-life: iv, read-out: T½ (converted); for half-life / Cmax / Tmax: Pig; for bioavailability / Cmax / Tmax: sc; for Cmax / Tmax: 6.0 nmol/kg s.c
Procedure: Pharmacokinetics studies were determined in male Göttingen minipigs from Ellegaard Göttingen Minipigs A/S. Animals were acclimatised for at least 7 days before placed on study. The minipigs had prior to study been surgically implanted with central venous catheters inserted which were used for blood sampling. Animals were housed under a 12/12 h dark-light cycle with ad libitum access to domestic water and animals were fed a commercially standard maintenance diet twice daily.
Test compounds where administrated either as a cassette or as a single compound. Test compounds were administrated by a single intravenous injection or short infusion (5-10 min) through the implanted catheter or a single subcutaneously injection. The subcutaneously injection was given in the mid neck between ear and scapula with a stopper on the needle, allowing 0.5 cm of the needle to be inserted.Plasma concentration-time profiles employing 12-16 sampling points were obtained from each animal. As an example, blood samples were collected on the following times: 0 (predose), 0.17, 0.33, 0.5, 1, 2, 5, 6, 24, 48, 72, 92, 168, 240 and 336 hrs post administration. Approximately 2 mL blood was drawn from the central catheter from each animal at each sampling point. Blood samples were taken in K2 or K3 EDTA tubes. Blood was kept on ice for maximum 30 min before centrifugation (10 min, 4°C, 2000 x g). Approximately 200 µL plasma samples was transferred to a Micronic tube and stored at -20° or lower.
Pharmacokinetics parameters were calculated by non-compartmental analysis (NCA) of the individual plasma concentrations-time profile from the animals. The log-linear trapezoidal method was used for estimation of AUC and AUMC. The terminal T½ was determined as In(2)/λz where λz is the first order rate constant as determined by the terminal log-linear part of the curve.
Plasma concentrations were measured by LC-MSMS using electrospray ionization and multiple reaction monitoring. Calibration standards and quality control (QC) samples were prepared in specie match matrix. 15 µL calibration standards, QC and study samples were extracted by protein precipitation using 60 µL methanol followed by addition of 45 µL milliQ water. Samples were shaken (800 rpm) at room temperature for 5 min before centrifugation (2570×g, 40 min, 4°C) and the supernatant was transferred to a LoBind PCR plate. Samples were analysed on a Thermo Triscend UHPLC system coupled to a Sciex API 6500+ mass spectrometer. Samples were subject to online SPE clean-up on a HLB column (1×50 mm, Waters) before loaded onto a Aeris Peptide XB C18 column (3.6 µm, 100 Å, 2×50 mm, Phenomenex) analytical column. The mobile phases consisted of acetonitrile and milliQ H2O both containing 0.1% V/V formic acid. The flow rate was 0.60 mL/min and the column was kept at room temperature.

[1] = Size exclusion chromatography for high molecular weight products (HMWP); format: physicochemical; conditions: for HMWP formation (SEC analysis) T14-T0 (%): 14 days; for HMWP formation (SEC analysis) T28-T0 (%): 28 days
Procedure: Dissolved samples were incubated for at least 2 h at room temperature on a rocking table. The main peak purity at time zero (T0) was determined using reversed phase chromatography. The samples were incubated at 40°C for 14 days (T14) and 28 days (T28). The samples were analyzed with reversed phase chromatography and size exclusion chromatography.
Size exclusion chromatography (SEC) was used as an analysis for the formation of high molecular weight products (HMWP, covalent dimers, trimers etc.,). SEC analyses was performed on Thermo Dionex Ultimate UHPLC system with UV detection at 215 nm) equipped with a SEC column (Waters BEH 125Å, 1.7 µm, 300mm x 4.6). Analysis was performed by isocratic elution using 60% buffer B (0.1% TFA in 5:95 H2O: acetonitrile) in buffer A (0.1% TFA in 95:5 H2O: acetonitrile) at a column temperature of 60° C over 20 min. Flowrate was 0.3 mL/min.
Chromatograms were integrated as HMWP (all peaks eluting before the main peak), main peak (assuming this is monomeric peptide) and if relevant LMWP (low molecular weight products, all peaks eluting after main peak). The amount of HMWP was reported as area relative to total area in percent.

pCRHR2 = assay: cAMP potency, transiently transfected CHO-K1 cells, pCRHR2; format: cell-based, pig; conditions: transiently transfected CHO-K1, average n=3; read-out: Transient cell system EC50 (nM) pCR HR2
Procedure: as §1

T1 sequence (P47866 whole entry): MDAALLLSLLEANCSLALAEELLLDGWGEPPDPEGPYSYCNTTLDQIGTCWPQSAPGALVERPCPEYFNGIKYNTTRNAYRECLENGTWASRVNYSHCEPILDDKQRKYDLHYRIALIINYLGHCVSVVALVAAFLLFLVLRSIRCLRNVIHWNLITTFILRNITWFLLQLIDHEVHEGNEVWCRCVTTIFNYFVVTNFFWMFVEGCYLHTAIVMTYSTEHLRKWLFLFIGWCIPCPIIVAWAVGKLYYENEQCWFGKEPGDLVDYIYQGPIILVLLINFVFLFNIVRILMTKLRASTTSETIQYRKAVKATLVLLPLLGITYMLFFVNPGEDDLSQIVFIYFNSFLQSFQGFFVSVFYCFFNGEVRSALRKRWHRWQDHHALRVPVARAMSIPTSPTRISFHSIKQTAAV

SMILES | EC50 (pCRHR1) | EC50 (rCRHR2) | half-life (PK in minipigs; 4.6 nmol/kg i.v.) | bioavailability (PK in minipigs) | Cmax (PK in minipigs) | Tmax (PK in minipigs) | HMWP formation (SEC analysis) T14-T0 (%) ([1]; pH 7.0, 40°C) | HMWP formation (SEC analysis) T28-T0 (%) ([1]; pH 7.0, 40°C) | HMWP formation (SEC analysis) T14-T0 (%) ([1]; pH 7.5, 40°C) | HMWP formation (SEC analysis) T28-T0 (%) ([1]; pH 7.5, 40°C) | HMWP formation (SEC analysis) T14-T0 (%) ([1]; pH 8.0, 40°C) | HMWP formation (SEC analysis) T28-T0 (%) ([1]; pH 8.0, 40°C) | EC50 (pCRHR2) | half-life (PK in minipigs; 6.0 nmol/kg i.v.)
CC[C@H](C)[C@H](NC)C(=O)N[C@H](C(=O)N[C@@H](CC(C)C)C(=O)N[C@@H](CO)C(=O)N[C@@H](CC(C)C)C(=O)N[C@@H](CC(=O)O)C(=O)N[C@H](C(=O)N1CCC[C@H]1C(=O)N[C@H](C(=O)NCC(=O)N[C@@H](CC(C)C)C(=O)N[C@@H](CC(C)C)C(=O)N[C@@H](CCC(N)=O)C(=O)N[C@H](C(=O)N[C@@H](CC(C)C)C(=O)N[C@@H](CC(C)C)C(=O)N[C@@H](CCC(=O)O)C(=O)N[C@@H](CCC(N)=O)C(=O)N[C@@H](C)C(=O)N[C@@H](CCCNC(=N)N)C(=O)N[C@@H](C)C(=O)N[C@@H](CCCNC(=N)N)C(=O)N[C@@H](C)C(=O)N[C@@H](C)C(=O)N[C@@H](CCCNC(=N)N)C(=O)N[C@@H](CCC(=O)O)C(=O)N[C@@H](CCC(N)=O)C(=O)N[C@@H](C)C(=O)N[C@@H](CCCCNC(=O)COCCOCCNC(=O)COCCOCCNC(=O)CC[C@H](NC(=O)CC[C@H](NC(=O)CCCCCCCCCCCCCCCCCCC(=O)O)C(=O)O)C(=O)O)C(=O)N[C@H](C(=O)N[C@@H](CC(N)=O)C(=O)NC(C)(C)C(=O)N[C@@H](CCC(=O)O)C(=O)N[C@H](C(=O)N[C@@H](CC(C)C)C(=O)N[C@@H](C)C(=O)N[C@@H](CCC(=O)O)C(=O)N[C@H](C(N)=O)C(C)C)[C@@H](C)CC)[C@@H](C)O)[C@@H](C)CC)[C@@H](C)CC)C(C)C)C(C)C [SEQ ID NO: 16] (H-[NMeI]VLSLDVPIGLLQILLEQARARAAREQAK([AEEA-AEEA-γGlu-γGlu-C20 diacid])TN[Aib]EILAEV-NH2) | > 5000 nM | 0.19 nM | 208 h | 66% | 35 nM | 48 h | -0.3% | -0.3% | 0.0% | 0.0% | -0.2% | -0.3% | 0.028 nM | –
CC[C@H](C)[C@H](NC)C(=O)N[C@H](C(=O)N[C@@H](CC(C)C)C(=O)N[C@@H](CO)C(=O)N[C@@H](CC(C)C)C(=O)N[C@@H](CC(=O)O)C(=O)N[C@H](C(=O)N1CCC[C@H]1C(=O)N[C@H](C(=O)NCC(=O)N[C@@H](CC(C)C)C(=O)N[C@@H](CC(C)C)C(=O)N[C@@H](CCC(N)=O)C(=O)N[C@H](C(=O)N[C@@H](CC(C)C)C(=O)N[C@@H](CC(C)C)C(=O)N[C@@H](CCC(=O)O)C(=O)N[C@@H](CCC(N)=O)C(=O)N[C@@H](C)C(=O)N[C@@H](CCCNC(=N)N)C(=O)N[C@@H](C)C(=O)N[C@@H](CCCNC(=N)N)C(=O)N[C@@H](C)C(=O)N[C@@H](C)C(=O)N[C@@H](CCCNC(=N)N)C(=O)N[C@@H](CCC(=O)O)C(=O)N[C@@H](CCC(N)=O)C(=O)N[C@@H](C)C(=O)N[C@H](C(=O)N[C@@H](CCCCNC(=O)COCCOCCNC(=O)COCCOCCNC(=O)CC[C@H](NC(=O)CC[C@H](NC(=O)CCCCCCCCCCCCCCCCCCC(=O)O)C(=O)O)C(=O)O)C(=O)N[C@@H](CC(N)=O)C(=O)N[C@@H](C)C(=O)N[C@@H](CCC(=O)O)C(=O)N[C@H](C(=O)N[C@@H](CC(C)C)C(=O)N[C@@H](C)C(=O)N[C@@H](CCC(=O)O)C(=O)N[C@H](C(N)=O)C(C)C)[C@@H](C)CC)[C@@H](C)O)[C@@H](C)CC)[C@@H](C)CC)C(C)C)C(C)C [SEQ ID NO: 6] (H-[NMeI]VLSLDVPIGLLQILLEQARARAAREQATK([AEEA-AEEA-γGlu-γGlu-C20 diacid])NAEILAEV-NH2) | > 5000 nM | 0.13 nM | – | – | – | – | -0.1% | 0.1% | -0.4% | -0.4% | -0.2% | 0.0% | 0.03 nM | 145 h
CC[C@H](C)[C@H](N)C(=O)N[C@H](C(=O)N[C@@H](CC(C)C)C(=O)N[C@@H](CO)C(=O)N[C@@H](CC(C)C)C(=O)N[C@@H](CC(=O)O)C(=O)N[C@H](C(=O)N1CCC[C@H]1C(=O)N[C@H](C(=O)NCC(=O)N[C@@H](CC(C)C)C(=O)N[C@@H](CC(C)C)C(=O)N[C@@H](CCC(N)=O)C(=O)N[C@H](C(=O)N[C@@H](CC(C)C)C(=O)N[C@@H](CC(C)C)C(=O)N[C@@H](CCC(=O)O)C(=O)N[C@@H](CCC(N)=O)C(=O)N[C@@H](C)C(=O)N[C@@H](CCCNC(=N)N)C(=O)N[C@@H](C)C(=O)N[C@@H](CCCNC(=N)N)C(=O)N[C@@H](C)C(=O)N[C@@H](C)C(=O)N[C@@H](CCCNC(=N)N)C(=O)N[C@@H](CCC(=O)O)C(=O)N[C@@H](CCC(N)=O)C(=O)N[C@@H](C)C(=O)N[C@@H](CCCCNC(=O)COCCOCCNC(=O)COCCOCCNC(=O)CC[C@H](NC(=O)CC[C@H](NC(=O)CCCCCCCCCCCCCCCCCCC(=O)O)C(=O)O)C(=O)O)C(=O)N[C@H](C(=O)N[C@@H](CC(N)=O)C(=O)N[C@@H](C)C(=O)N[C@@H](CCC(=O)O)C(=O)N[C@H](C(=O)N[C@@H](CC(C)C)C(=O)N[C@@H](C)C(=O)N[C@@H](CCC(=O)O)C(=O)N[C@H](C(N)=O)C(C)C)[C@@H](C)CC)[C@@H](C)O)[C@@H](C)CC)[C@@H](C)CC)C(C)C)C(C)C [SEQ ID NO: 3] (H-IVLSLDVPIGLLQILLEQARARAAREQAK([AEEA-AEEA-γGlu-γGlu-C20 diacid])TNAEILAEV-NH2) | > 5000 nM | 0.07 nM | – | 55% | 60 nM | 24 h | – | – | – | – | – | – | 0.027 nM | 156 h
